Where “and” joins values, the source holds several entries; their conditions need not be identical. Equal entries are not always repeated.
Legend:
human GDF-15 = molecular target: T1, human GDF-15 (Homo sapiens, UniProt Q99988); assay: Kd determination by Surface Acoustic Wave (SAW) gold chip biosensors; format: binding; settings: murine B1-23 stabilized with 0.2% BSA, H1L5 as CHO supernatant
T1 sequence (Q99988 with tags, fused parts or gaps limits assumed): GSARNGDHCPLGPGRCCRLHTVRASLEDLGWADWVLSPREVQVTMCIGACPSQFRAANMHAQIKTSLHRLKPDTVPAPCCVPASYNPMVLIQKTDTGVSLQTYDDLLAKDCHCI
Excerpt: Determination of Kd values of anti-GDF-15 antibodies. The Kd values of different anti-GDF-15 antibodies were compared using Surface Acoustic Wave (SAW) gold chip biosensors technology (SAW Instruments GmbH, Schwertberger Str. 16, D-53177 Bonn, Germany):
The murine antibody (B1-23) as well as the chimeric B1-23 antibody were present in purified form. The H1L5 humanized B1-23 antibody was a serum-free CHO cell culture supernatant.

[1] = comparison value, antigen not given; read-out: equilibrium dissociation constant of therapeutic antibody; cited from earlier work
[2] = Study No. 140123: feed consumption of UACC-257 inoculated mice; format: in vivo, Balb/c^nu/nu mice; settings: average over day 17-34 intervals, with standard deviation
Procedure: Treatment of cancer-induced weight loss with anti-GDF-15 antibodies. In the underlying animal study No. 140123, 10 Balb/c^nu/nu mice per treatment group were subcutaneously inoculated with 10×10^6 UACC-257 cells per animal in a 1:1 volume ratio with matrigel (100 μl cells+100 μl matrigel). The animals were treated on the same day with the respective antibodies, as indicated below:
In addition to evaluating the mean body weight of the mice, the feed consumption of the mice was evaluated by pairwise comparisons of the study groups (Table 1).

Kd (human GDF-15) [nM]	Compound	Kd [1]	Feed consumption per mouse and day [2] [g]
1120	Rituximab: therapeutically used antibody; control antibody in SAW assay	~8 nM and 8 nM	
	CN(C)/N=N/c1[nH]cnc1C(N)=O [dacarbazine, Dacarbazine, reference compound]		2.8 ± 0.2

Source: patent publication US11760795B2, “Monoclonal antibodies to growth and differentiation factor 15 (GDF-15), and uses thereof for treating cancer cachexia and cancer” (JULIUS-MAXIMILIANS-UNIVERSITÄT WÜRZBURG, priority 2014, dated 2023)
